Where a name gives a salt, the structure may show the parent alone.
Test: first-order primary biodegradation rate constant k (sorption-corrected, fDis-corrected) (d-1); higher = faster biodegradation
Method: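 Modified OECD 309 water-sediment test. River water plus sieved sediment (50 g wet solid/L) from European river segments (DE, CH, ES, EL) was spiked with a mixture of 129 compounds at 1 ug/L each and incubated in the dark at river temperature for 10 days. The water phase was analysed by UHPLC-Orbitrap-MS. The first-order primary biodegradation rate constant k (d-1) is k_observed, corrected for dissipation in sterile sorption controls and divided by the dissolved fraction fDis; it was fitted over 3 replicate incubations. Invalid fits (p > 0.05, n < 5, not available, concentration increase) are excluded.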

[1] = river segment: Germany (DE) H_Contam, incubation temperature 24 °C
[2] = river segment: Germany (DE) T_Contam, incubation temperature 24 °C
[3] = river segment: Germany (DE) T_Pris, incubation temperature 24 °C
[4] = river segment: Greece (EL) A_Contam, incubation temperature 19 °C
[5] = river segment: Greece (EL) G_Contam, incubation temperature 19 °C
[6] = river segment: Greece (EL) L_Contam, incubation temperature 19 °C
[7] = river segment: Spain (ES) B_Contam, incubation temperature 24 °C
[8] = river segment: Spain (ES) C_Contam, incubation temperature 24 °C
[9] = river segment: Spain (ES) F_Pris_Salt, incubation temperature 24 °C
[10] = river segment: Spain (ES) L_Contam, incubation temperature 24 °C
[11] = river segment: Switzerland (CH) C_Contam, incubation temperature 17 °C
[12] = river segment: Switzerland (CH) R_Contam, incubation temperature 17 °C
[13] = river segment: Switzerland (CH) U_Contam, incubation temperature 17 °C
[14] = river segment: Switzerland (CH) U_Pris, incubation temperature 17 °C
[15] = river segment: Greece (EL) G_Pris, incubation temperature 19 °C

first-order primary biodegradation rate constant k [1] | first-order primary biodegradation rate constant k [2] | first-order primary biodegradation rate constant k [3] | first-order primary biodegradation rate constant k [4] | first-order primary biodegradation rate constant k [5] | first-order primary biodegradation rate constant k [6] | first-order primary biodegradation rate constant k [7] | first-order primary biodegradation rate constant k [8] | first-order primary biodegradation rate constant k [9] | first-order primary biodegradation rate constant k [10] | first-order primary biodegradation rate constant k [11] | first-order primary biodegradation rate constant k [12] | first-order primary biodegradation rate constant k [13] | first-order primary biodegradation rate constant k [14] | first-order primary biodegradation rate constant k [15] | Structure (SMILES)
0.499 | 1.05 | 0.446 | 1.09 | 1.68 | 1.94 | 0.863 | 0.301 | 0.146 | 1.1 | 0.314 | 0.45 | 1.95 | 2.28 |  | O=[N+]([O-])c1ccc(Cc2ccncc2)cc1 [4-(4-Nitrobenzyl)pyridine]
1.43 |  |  | 0.277 | 1.93 | 5.22 |  |  |  | 0.469 | 6.13 | 0.288 | 0.0899 |  |  | CCCCC(CC)COCC(O)CO (stereo not given) [3-((2-Ethylhexyl)oxy)propane-1,2-diol]
0.797 |  | 3.25 |  |  |  |  |  |  |  | 0.0571 |  | 4.2 | 2.14 |  | CNCCC(Oc1ccc(C(F)(F)F)cc1)c1ccccc1 (stereo not given) [Fluoxetine]
0.0753 |  | 0.259 | 1.21 | 1.63 | 0.81 | 0.646 | 0.00288 | 0.0294 | 1.5 | 0.0717 | 0.119 |  | 0.0554 | 1.17 | Nc1ccc(S(=O)(=O)Nc2nccs2)cc1 [Sulfathiazole]
2.34 | 3.16 |  | 3.21 | 3.16 |  | 1.24 | 1.28 |  | 2.82 |  | 3.87 | 2.14 |  | 0.888 | CC(=O)Nc1ccc(O)cc1 [Paracetamol]
0.127 | 0.147 | 0.044 | 0.283 | 0.119 | 0.166 |  |  |  | 0.0944 |  |  | 0.0756 | 0.0899 | 0.286 | CN(C)C(=O)Nc1ccc(Cl)c(Cl)c1 [Diuron]
0.0119 | 0.0934 | 0.0124 | 0.285 | 0.00542 | 0.262 | 0.0257 | 0.0212 |  | 0.0693 | 0.0127 | 0.0142 | 0.0268 | 0.103 | 0.308 | CC(=O)NC[C@H]1CN(c2ccc(N3CCOCC3)c(F)c2)C(=O)O1 [Linezolid]
0.108 | 0.441 | 0.226 | 0.537 | 0.0301 | 0.285 | 0.235 | 0.269 | 0.0247 | 0.368 | 1.07 | 0.829 | 1.21 | 2.62 | 0.36 | CC(C(=O)O)c1cccc(C(=O)c2ccccc2)c1 (stereo not given) [Ketoprofen]
0.387 | 1.31 | 0.365 | 1.16 | 0.652 | 1.2 | 0.38 | 0.286 | 0.221 | 0.565 | 0.44 | 0.57 | 0.383 | 1.15 | 2.31 | NC(=O)c1cn(Cc2c(F)cccc2F)nn1 [Rufinamide]
 | 0.275 | 0.0369 |  |  |  |  |  |  | 0.339 | 0.00672 | 0.0597 | 0.127 | 0.0638 |  | CCOC(=O)CC(O)(CC(=O)OCC)C(=O)OCC [Triethyl citrate]
0.0409 | 0.0507 | 0.00553 | 0.316 |  | 2.87 | 0.0121 | 0.00219 |  | 0.208 |  | 0.00612 | 0.0122 | 0.0264 | 0.0923 | c1ccc2[nH]nnc2c1 [Benzotriazole]

Structure (SMILES) | first-order primary biodegradation rate constant k [1] | first-order primary biodegradation rate constant k [2] | first-order primary biodegradation rate constant k [3] | first-order primary biodegradation rate constant k [4] | first-order primary biodegradation rate constant k [5] | first-order primary biodegradation rate constant k [6] | first-order primary biodegradation rate constant k [7] | first-order primary biodegradation rate constant k [8] | first-order primary biodegradation rate constant k [9] | first-order primary biodegradation rate constant k [10] | first-order primary biodegradation rate constant k [11] | first-order primary biodegradation rate constant k [12] | first-order primary biodegradation rate constant k [13] | first-order primary biodegradation rate constant k [14] | first-order primary biodegradation rate constant k [15]
O=C1Nc2ccc(Cl)cc2C(c2ccccc2)=NC1O (stereo not given) [Oxazepam] | 0.0405 | 0.0412 |  |  |  | 0.027 |  | 0.124 |  | 0.0149 |  |  | 0.0242 | 0.00813 | 
CCNc1nc(Cl)nc(NC(C)C)n1 [Atrazine] | 0.0725 | 0.136 | 0.025 | 0.0312 |  |  | 0.103 | 0.0247 |  | 0.451 | 0.0513 |  | 0.0313 | 0.0218 | 

Reference: the supplement of paper PMC11562712
